Earlier results in patent publication US20130143970A1, “MEDICINAL PREPARATION PARTICULARLY FOR THE TREATMENT OF SLIPPED DISCS HERNIAS” (priority 2002, published 2013).

Conditions: intradiscal injections

## CCO [absolute alcohol, ethanol]
  treatment results in lumbar discal hernias: very promising results
